In one assay the test system is ferret fibroblasts. Kind of assay: rAAV transduction of ferret fibroblasts. It counts as cell-based. The note with it: for concentration at which transduction was enhanced: ferret fibroblast cells. The text has this: (§1) A. To screen for agents that enhance rAAV transduction, any number of cells can be used. A range of concentrations of the agent to be tested can be determined based on, for instance desirable profiles of the agent, desirable toxicity profiles of the agent and/or concentration of the agents employed in vivo. The usefulness of the cell type chosen for the screen can be confirmed by testing compounds, e.g., proteasome inhibitors such as LLnL and ZLL which are known to increase rAAV transduction. For example, a AAV2 FLAG-Luc vector was employed to transduce HeLa, ferret fibroblasts, IB3 and Huh (liver) cells in the presence or absence of the proteasome inhibitor MG132. MG132 was confirmed to enhance AAV transduction in all cell types tested: HeLa cell transduction was enhanced about 500-fold at 80 μM, and 200-fold at 40 μM, MG132; ferret fibroblast cell transduction was enhanced about 200-fold at 20 μM, and 17-fold at 4 μM, MG132; IB3-1 cell transduction was enhanced about 30 to 70-fold at 20 to 80 μM MG132; and Huh-7 cell transduction was enhanced about 15-fold at 20 to 80 μM MG132. There was no difference in rAAV transduction efficiency in HeLa cells when either DMSO or ETOH was used as a vehicle for MG132. B. HeLa cells were selected to screen for additional agents that enhance rAAV transduction, although any cell strain or line; or primary cells, may be employed. […] The range of concentrations of the agents to be tested were selected based on solubility profiles, toxicity profiles and/or concentrations previously employed in vivo.
(§2) C. To determine whether combinations of agents that enhance rAAV transduction efficiency have synergistic or additive effects when used in combination, cells were contacted with the proteasome modulator, doxorubicin, and the proteasome inhibitor Z-LLL or LLnL. Different AAV vectors were tested, including splicing vectors and pseudotyped rAAV. Viral stocks utilized were as follows: Av2RSVluc, 5×10^8 particle/μl; Av2RSVlucCap5 (also referred to as Av2/5 CMVLuc), 2×10^9 particle/μl; Av2CMVluc, 1.3×10^9 particle/μl; and Av2CMVlucCap5, 1.1×109 particle/μl. Combinations of agents were compared to the agents used alone to determine the efficiency of transduction. LLnL was used at 40, 200 or 400 μM, Z-LLL at 4 μM and doxorubicin at 0.5 or 1 μM when employed alone. When a combination of LLnL and doxorubicin was used, LLnL was used at 4, 10, 20, 40, 200 or 400 μM and doxorubicin at 1 or 5 μM. The apical surface of polarized airway epithelia, HeLa cells or ferret fibroblast was contacted with the agents and rAAV (5×10^9 particles per well).

A further assay deals with HeLa cells. In words: AAV2 FLAG-Luc transduction of HeLa cells (luciferase screen). Type of assay: cell-based, human. The note with it: for concentration at which transduction was enhanced: HeLa cells.
Text: as §1
HeLa cells were infected for 2 hours with an MOI of 100 rAAV in the presence of agents, e.g., ritonavir (Norvir) (1, 10 and 100 μM), cyclosporin A (2.5, 25 and 250 μg/ml), epoxomicin (1, 10 and 50 μM), alcacinomycin A (5, 50 or 500 μM), chymostatin (1, 10 and 100 μM), bestatin (1, 10 and 100 μM), doxorubicin (adriamycin) (0.1, 1 and 10 μM), camptothecin (camptosar) (1, 10 and 100 μM), eicosapentanoic acid (1, 10 and 100 μM), tannic acid (2, 20, 200 and 2000 μM), simvastatin, prodrug (2, 20 and 200 μM), cisplatin (0.2, 2 and 20 μg/mL), and chloroquine (4, 40 and 400 μM). Forty-eight hours after infection, cells were harvested for analysis. rAAV transduction was measured by removing the media from the cell cultures, adding 100 μL reporter lysis buffer (RLB) and freezing. The supernatant was thawed and transferred to microfuge tubes, freeze thawed an additional 2 times, clarified by centrifugation for 10 minutes and then analyzed for reporter gene expression on the lumometer. Protein was determined by Bradford analysis and results were expressed as relative light units per mg protein (RLU/mg).
Based on results with doxorubicin, a small number of FDA approved anthracyclines were tested for their relative in vitro and in vivo activities on AAV transduction. HeLa cells were infected with 100 ppc AAV2FLAG-Luc for 2 hours in the presence of different anthracyclines, e.g., doxorubicin, daunarubicin (Cerubidine), epirubicin (Ellence™), and idarubicin (Idamycin®), and cells harvested 48 hours later. The anthracyclines were pharmaceutical grade, and prepared according to the manufacturer's instructions. Prior to use, the agents were diluted in sterile water to an equal mass, e.g., 0.6 μg/mL, 3 μg/mL and 6 μg/mL. For example, 3 μg/mL idamycin increased luciferase expression by over 5000-fold while doxorubin increased luciferase expression by 58-fold. Generally, the potency was as follows: idarubicin>daunarubicin>epirubicin>doxorubicin.

In assay [1] the test system is primary fetal fibroblasts. In words: rAAV transduction of primary fetal fibroblasts. Conditions: data not shown. It counts as cell-based. How it is done:
Hela, A549, IB3, and primary fetal fibroblasts were evaluated for AV2Luc and AV2/5Luc transduction in the presence of LLnL, Dox, or LLnL+Dox at various concentrations. The data shown is from Hela and A549 cells at the most optimal dose combination that induces rAV2Luc transduction to a greater extent than each compound alone.

The test system of a further assay is A549 cells. In words: rAAV transduction of A549 cells. It counts as cell-based, human. The note with it: for induction of rAAV transduction: 24 hours post-infection. How it is done:
as §2
(§3) LLnL and Z-LLL are two tripeptidyl aldehydes shown to inhibit calpains, cathepsins, cysteine proteases as well as the chymotrypsin-like protease activity of proteasomes (Wagner et al., 2002; Donkor, 2000; Sasaki et al., 1990). […] Both classes of proteasome inhibitors bind tightly to the proteasome complex. Dose response curves for these two proteasome-modulating agents were evaluated on IB3, A549, Hela, and primary fibroblasts. The responses were consistent for a number of cell lines and for three different promoters driving luciferase expression. For one set, CMV-driven luciferase constructs with an AAV2-based genome were employed that were packaged into AV2 or AV5 capsids. Cells were infected at various doses of AV2Luc and AV2/5Luc (MOIs 100 to 1000 particles/cell). At the time of infection, cells were treated with various concentrations of LLnL or Doxorubicin and gene expression was assayed at 24 hours post-infection. The effect of proteasome inhibitors on nuclear uptake of virus was evaluated using a previously-described protocol for fractionating viral DNA in the cytoplasm and nucleus (Xiao et al., 2002). Viral DNA content in the cytoplasmic and nuclear fractions was then evaluated by slot blot hybridization against a Luciferase DNA probe.

Assay [2] deals with IB3 cells. In words: AV2Luc and AV2/5Luc transduction of IB3 cells. It counts as cell-based, human. The note with it: 24 hours post-infection. How it is done: as §3
In assay [3] the test system is IB3 cells. In words: Nuclear versus cytoplasmic viral DNA fractionation in rAAV2-infected IB3 cells. Type of assay: cell-based, human. How it is done: as §3

Peptide text beside a SMILES is read from it. * marks the point of attachment. Cbz = O=C(OCc1ccccc1)*

With `CC(C)C[C@@H](C=O)NC(=O)[C@H](CC(C)C)NC(=O)[C@H](CC(C)C)NC(=O)OCc1ccccc1` [Z-LLL, N-carbobenzoxyl-L-leucinyl-L-leucinyl-L-leucinal] (Cbz-Leu-Leu-Leu-aldehyde), the “enhancement of ferret fibroblast cell transduction” value is listed as roughly 17 fold with ferret fibroblasts (4 μM) and “about 200 fold” with ferret fibroblasts (20 μM). For the same molecule, the “enhancement of HeLa cell transduction” value with HeLa cells (40 μM) is listed as “about 200 fold”; in the assay with HeLa cells (80 μM) it was “about 500 fold”.

Take `COc1cccc2c1C(=O)c1c(O)c3c(c(O)c1C2=O)C[C@@](O)(C(=O)CO)C[C@@H]3O[C@H]1C[C@H](N)[C@H](O)[C@H](C)O1` [doxorubicin]: the induction of transduction entry in assay [1] is “most significantly enhances transduction”. Further, the “concentration at which transduction was enhanced” value stood at 1 µM in the assay with ferret fibroblasts, 5 µM in the assay with A549 cells and 1 µM in the assay on HeLa cells. Besides, the enhancement of transduction result in the assay on ferret fibroblasts (ferret fibroblasts infected with lacZ splicing vectors) was “about 100 fold”. Besides, the “induction of rAAV transduction” value with A549 cells and in the assay with IB3 cells [2] was 200 fold each time. In addition, the “fraction of viral DNA in the nuclear compartment” value in the assay with IB3 cells [3] was “significantly increased the fraction of viral DNA in the nuclear compartment”. The “result in cell line screening” value with HeLa cells is reported as “tested positive”. For the same molecule, in the assay with HeLa cells (3 μg/mL, 100 ppc AAV2FLAG-Luc, harvest 48 hours), the “increase in luciferase expression” value was found to be 58 fold. For the same molecule, the “order of potency among anthracyclines” value with HeLa cells (0.6, 3 and 6 μg/mL) is listed as “idarubicin>daunarubicin>epirubicin>doxorubicin”. In addition, the “dose dependence of transduction” value with HeLa cells (dose ranges tested) is on record as “dose-dependent increase in transduction”.

As to “N-acetyl-L-leucinyl-L-leucinal-L-norleucinal [LLnL]”, in assay [1], the induction of transduction amounted to 10 fold. For the same molecule, the “concentration at which transduction was enhanced” value in the assay with ferret fibroblasts was 40 µM; in the assay on A549 cells, 200 to 400 µM; in the assay on HeLa cells, 40 µM. The “induction of rAAV transduction” value in the assay with A549 cells is listed as 10-fold lower levels of induction; in the assay with IB3 cells [2] it was greater than 200 fold. Moreover, the “fraction of viral DNA in the nuclear compartment” value in the assay on IB3 cells [3] is on record as “significantly increased the fraction of viral DNA in the nuclear compartment”.

The record behind these values is patent US20080206198A1, “Compounds and methods for pharmico-gene therapy of epithelial sodium channel associated disorders” (priority 2003, published 2008).
